Twelve compounds from patent publication US20240018151A1, “NOVEL INHIBITORS OF PIKFYVE AND METHODS USING SAME” (priority 2020, published 2024) can be followed below.

Molecules are shown by their SMILES.

A short description of one data set: in vitro. The conditions noted are these: hamster.
The subject of data set [1] is SARS-CoV-2 spike pseudovirus in BHK21/hACE2 cells. As to the kind of experiment: microbe, parasite or virus in culture. The conditions noted are these: Severe acute respiratory syndrome coronavirus 2, BHK-21. Format: cell-based.
The test system of data set [2] is JJN3 (multiple myeloma) cells. Kind of data set: Anti-proliferative assay (CellTiter-Glo), JJN3. The conditions noted are these: Homo sapiens, JJN-3, 144 h, six days incubation. Format: cell-based. Here is the method: (§1) Selected compounds are evaluated for their anti-proliferative activity against human cutaneous T-cell lymphoma and multiple myeloma cell lines.
(§2) HuT-78 (T cell lymphoma) cells or JJN3 (multiple myeloma) cells are cultured in RPMI-1640 with 10% FBS and 1% penicillin/streptomycin. 45 μL suspensions of cells are transferred to the wells of 384-well plate for a density of 1,000 cells per well. The plates are incubated overnight at 37° C. under 5% CO2 atmosphere. Test compounds are dissolved in 100% DMSO at a 2 mM concentration, then diluted 20× in assay medium for to provide a 5% DMSO concentration and 100 μM compound concentration. 5 μL of this compound solution is added to the 45 μL cell suspension in the assay plate for a top plate concentration of 10 μM and 0.5% DMSO concentration. For positive controls, 10 μM APY0201 is added instead of the compound solution. After spinning at 1000 rpm for 1 minutes, the cell plate is placed in the incubator […] at 37° C. under 5% CO2 atmosphere. After incubation for six days, the cell plate is equilibrated to room temperature for 20 minutes. 25 μL of CellTiter-Glo (CTG) reagent (Promega Cat No. G7572) is added to each well, and the plate is shaken for 15 minutes at 300 rpm. Luminescence is read on an Envision plate reader.

Data set [3] is described as follows: Cytotoxicity (CC50) in Influenza A assay. The conditions noted are these: dog; Influenza A IFA Assay; MDCK cells. Format: cell-based. Here is the method: Influenza A IFA: Test compounds are solubilized in DMSO to prepare 20 mg/mL stock solutions. Compounds are then serially diluted using eight half-log dilutions in test media so that the starting (high) test concentration is 100 μg/mL. Each dilution is added to 5 wells of a 96-well plate with 80-100% confluent MDCK cells. Three wells of each dilution are infected with virus (strain influenza A strain California/07/09 (H1N1) pdm09), and two wells remain uninfected as toxicity controls. As virus controls, six wells are infected but untreated, and as cell controls, six wells are uninfected and untreated. Each virus is prepared to achieve an MOI (multiplicity of infection) of 0.001. A positive control compound is tested in parallel. Plates are incubated at 37° C. under 5% CO2 atmosphere. On day 3 post-infection (once untreated virus control cells reached maximum cytopathic effect, CPE), plates are stained with neutral red dye for 2 hours. Supernatant dye is removed and the wells are rinsed with PBS. The incorporated dye is extracted using 50:50 Sorensen citrate buffer/ethanol for at least 30 minutes, and the optical density is read at […] on a spectrophotometer. […] The selectivity index (SI) is calculated as CC50 divided by EC50. […]

In data set [4] the test system is PIK3CA, PIP4K2A, PIP4K2B, PIP4K1A, PIP4K1B, PIP4K1C, PIP5KL1. As to the kind of experiment: Comparative Kinase Assays (selectivity versus other lipid kinases). Format: biochemical. Here is the method: (§3) Briefly, 4× compound solution and 4×ATP solution are prepared with assay buffer (50 mM MOPS, 1 mM DTT, pH7.2). 4× Substrate solution and 4× kinase/Metal solution are prepared with MOPS based buffer containing individual kinase specific additives. Then, […] of 4× compound solution, 5 μL of 4× Substrate solution, 5 μL of 4×ATP solution, and 5 μL of 4× kinase/Metal solution are mixed and incubated in a well of polystyrene 384 well black microplate for 1 hour at room temperature. Next, 20 μL of ADP-Glo™ Reagent (Promega) is added to the well, and incubated for over 40 minutes. 40 μL of Kinase Detection Reagent (Promega) is added to the well, and incubated for over 40 minutes. The kinase reaction is evaluated by the endpoint luminescence of the well.
To determine whether the compounds are selective, the assay is repeated using appropriate substrates for different test enzymes:
The compounds of Examples 1, 3 and 6 are tested against these enzymes: […]

For data set [5], the system named is influenza A strain California/07/09 (H1N1) pdm09 in MDCK cells. As to the kind of experiment: Influenza A IFA assay (CPE inhibition, neutral red). Type of data set: cell-based. The conditions noted are these: Influenza A virus.
Data set [6] is described as follows: Cytotoxicity (CC50) in SARS-CoV-2 IFA. Format: cell-based. The conditions noted are these: African green monkey; SARS-CoV2 IFA Assay; Vero cells. Here is the method: SARS-CoV-2 IFA: In 384-well plates, Vero cells re seeded at an appropriate density and cultured at 37° C. and 5% CO2. Serially diluted (10 concentrations, in duplicates) test/reference compounds are added. Then the cells are infected with virus. The resulting cultures are incubated for an additional 1 day. The cells are then fixed and analyzed by immunofluorescence. EC50 and CC50 values are calculated with GraphPad Prism software.

The next data set concerns SARS-CoV-2 in Vero cells. Kind of data set: SARS-CoV-2 immunofluorescence assay (IFA). Type of data set: cell-based. The conditions noted are these: Severe acute respiratory syndrome coronavirus 2, SARS-CoV2 IFA Assay.
The subject of data set [7] is HuT-78 (T cell lymphoma) cells. Kind of data set: Anti-proliferative assay (CellTiter-Glo), HuT-78. Type of data set: cell-based. The conditions noted are these: Homo sapiens, HuT78, 144 h, six days incubation. Here is the method:
as §1, §2

In data set [8] the target is T1, PIKFYVE (Homo sapiens (Human), UniProt Q9Y2I7). As to the kind of experiment: ADP-GLO Kinase Assay, PIKFYVE inhibitory activity. Format: biochemical. The conditions noted are these: substrate PI3P 10,000 nM. Here is the method: as §3
For measurement of PIKFYVE activity, the substrate is PI3P at 10,000 nM concentration, using AG-182 as a positive control. The metal used is magnesium at 5 mM concentration.
Background: ADP-Glo first removes unused ATP, then detects ADP through luciferase.

The target of data set [9] is T1, PIKFYVE. As to the kind of experiment: KINOMEScan Kinase Assay, PIKFYVE binding. The conditions noted are these: for inhibition at 0.05 µM: read-out: % Inhib. (50 nM).

T1 sequence (Q9Y2I7 whole entry): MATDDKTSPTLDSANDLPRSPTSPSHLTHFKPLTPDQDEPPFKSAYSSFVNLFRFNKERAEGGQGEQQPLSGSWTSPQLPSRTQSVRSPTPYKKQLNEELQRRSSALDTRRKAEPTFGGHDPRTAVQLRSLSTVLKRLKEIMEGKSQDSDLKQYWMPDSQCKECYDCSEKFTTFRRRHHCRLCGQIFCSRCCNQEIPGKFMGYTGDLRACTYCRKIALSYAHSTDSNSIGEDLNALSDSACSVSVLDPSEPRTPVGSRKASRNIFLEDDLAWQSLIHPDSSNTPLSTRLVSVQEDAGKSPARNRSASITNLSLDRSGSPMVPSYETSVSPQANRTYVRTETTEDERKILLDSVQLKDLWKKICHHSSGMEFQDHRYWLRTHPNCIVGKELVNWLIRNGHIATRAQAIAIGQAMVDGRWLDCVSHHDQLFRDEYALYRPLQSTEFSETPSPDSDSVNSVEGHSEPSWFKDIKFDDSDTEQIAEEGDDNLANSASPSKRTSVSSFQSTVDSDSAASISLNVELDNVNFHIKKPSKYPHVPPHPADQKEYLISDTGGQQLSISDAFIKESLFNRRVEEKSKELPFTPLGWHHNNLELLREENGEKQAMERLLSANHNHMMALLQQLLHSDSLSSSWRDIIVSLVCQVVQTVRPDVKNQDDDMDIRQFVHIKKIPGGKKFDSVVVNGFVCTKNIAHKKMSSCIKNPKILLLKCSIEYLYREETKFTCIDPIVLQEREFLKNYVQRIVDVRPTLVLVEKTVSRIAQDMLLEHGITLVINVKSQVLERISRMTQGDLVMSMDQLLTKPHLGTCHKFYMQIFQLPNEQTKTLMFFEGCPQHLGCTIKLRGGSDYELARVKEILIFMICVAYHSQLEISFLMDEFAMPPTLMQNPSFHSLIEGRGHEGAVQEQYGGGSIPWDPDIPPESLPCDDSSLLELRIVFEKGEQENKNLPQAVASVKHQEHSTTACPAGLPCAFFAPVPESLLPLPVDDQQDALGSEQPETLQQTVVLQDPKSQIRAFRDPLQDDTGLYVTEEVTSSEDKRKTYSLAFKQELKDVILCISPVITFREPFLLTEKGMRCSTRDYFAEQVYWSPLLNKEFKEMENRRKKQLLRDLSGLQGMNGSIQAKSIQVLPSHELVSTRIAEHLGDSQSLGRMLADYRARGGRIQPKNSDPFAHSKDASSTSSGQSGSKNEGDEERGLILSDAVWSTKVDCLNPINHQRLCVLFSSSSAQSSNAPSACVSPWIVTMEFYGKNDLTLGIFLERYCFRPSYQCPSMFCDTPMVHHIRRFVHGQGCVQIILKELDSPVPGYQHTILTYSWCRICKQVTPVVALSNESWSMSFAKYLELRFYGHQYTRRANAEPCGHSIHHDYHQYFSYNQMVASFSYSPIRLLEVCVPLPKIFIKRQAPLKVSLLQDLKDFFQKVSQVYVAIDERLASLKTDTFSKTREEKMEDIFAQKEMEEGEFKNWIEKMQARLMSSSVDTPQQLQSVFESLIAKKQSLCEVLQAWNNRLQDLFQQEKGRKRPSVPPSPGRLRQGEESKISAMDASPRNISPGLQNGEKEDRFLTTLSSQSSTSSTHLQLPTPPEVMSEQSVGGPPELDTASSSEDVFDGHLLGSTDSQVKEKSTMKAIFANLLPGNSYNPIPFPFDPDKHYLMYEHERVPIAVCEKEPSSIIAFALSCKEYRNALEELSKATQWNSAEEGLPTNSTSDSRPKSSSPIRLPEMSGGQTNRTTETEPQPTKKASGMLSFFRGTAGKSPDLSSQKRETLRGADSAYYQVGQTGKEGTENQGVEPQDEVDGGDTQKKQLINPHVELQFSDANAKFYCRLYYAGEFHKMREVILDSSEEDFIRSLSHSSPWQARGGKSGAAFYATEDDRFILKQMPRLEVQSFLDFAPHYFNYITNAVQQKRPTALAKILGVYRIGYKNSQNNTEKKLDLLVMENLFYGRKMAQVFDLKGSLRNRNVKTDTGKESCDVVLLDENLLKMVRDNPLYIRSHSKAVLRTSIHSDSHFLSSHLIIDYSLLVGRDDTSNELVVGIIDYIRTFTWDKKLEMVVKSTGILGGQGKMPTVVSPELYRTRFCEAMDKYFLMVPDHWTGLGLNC

For `Cc1cccc(/C=N/Nc2cc(N3CCOCC3)nc(OCCc3ccccn3)n2)c1` [Apilimod, reference compound], the CC50 in the data set “in vitro” stood at 8 µM. In addition, the EC50 in data set [1] is < 10 nM.
In turn, `CCN(CC)CCCC(C)Nc1ccnc2cc(Cl)ccc12` (stereo not shown) [Chloroquine, chloroquine, reference compound] yielded a CC50 in the data set “in vitro” of 35 µM. This compound registered an EC50 in [1] of 6000 nM.
With `Cc1cccc(-c2ccn(-c3cc(N4CCOCC4)n4nc(-c5ccncc5)cc4n3)n2)c1` [Ex. 1], the IC50 in data set [2] is < 100 nM; in data set [7], 100 to 1000 nM; on PIKFYVE [8] it was < 50 nM. Besides, the CC50 is > 20 µM in data set [3] and 5 to 10 µM in “in vitro”. Besides, the “Fold Selectivity for PIKFYVE” value in data set [4] was >100-fold. In addition, the results for the EC50 (in data set [5]; with SARS-CoV-2 in Vero cells; in data set [1]) were 1 to 5 µM, 100 to 1000 nM and < 10 nM, respectively. In addition, the CC50 at 1 day in [6] is > 20 µM. Further, the Kd on PIKFYVE [9] was < 1 nM.
Consider `Fc1cccc(-c2ccn(-c3cc(N4CCOCC4)n4nc(-c5ccncc5)cc4n3)n2)c1` [Ex. 2], for which the IC50 on PIKFYVE [8] is < 50 nM. Further, the inhibition at 0.05 µM at PIKFYVE [9] is 50 to 80%.
As for `Brc1cccc(-c2ccn(-c3cc(N4CCOCC4)n4nc(-c5ccncc5)cc4n3)n2)c1` [Ex. 3], the CC50 in data set [3] is > 20 µM; in “in vitro”, > 10 µM. In addition, the figures for the EC50 (in data set [5]; with SARS-CoV-2 in Vero cells; in data set [1]) were 5 to 10 µM, 1000 to 5000 nM and < 10 nM, respectively. In addition, the CC50 at 1 day in data set [6] is > 20 µM. The inhibition at 0.05 µM on PIKFYVE [9] fell in the range of 80 to 100%.
For the compound `N#Cc1cccc(-c2ccn(-c3cc(N4CCOCC4)n4nc(-c5ccncc5)cc4n3)n2)c1` [Ex. 4], the IC50 at PIKFYVE [8] is < 50 nM. Further, at PIKFYVE [9], the inhibition at 0.05 µM lay within 50 to 80%.
On the same counts, the results for `CC(C)(C)c1ccn(-c2cc(N3CCOCC3)n3nc(-c4ccncc4)cc3n2)n1` [Ex. 5] are > 1000 nM and < 50%.
With `COc1cccc(-c2ccn(-c3cc(N4CCOCC4)n4nc(-c5ccncc5)cc4n3)n2)c1` [Ex. 6], the IC50 in data set [2] is < 100 nM; in data set [7] it was 100 to 1000 nM; at PIKFYVE [8] it was < 50 nM. For the same compound, the “Fold Selectivity for PIKFYVE” value in data set [4] is >200-fold. Besides, in the data set “in vitro”, the CC50 fell in the range of 5 to 10 µM. In [1], the EC50 is < 10 nM. Moreover, the Kd on PIKFYVE [9] was < 1 nM.
Compound `Cc1ccccc1-c1ccn(-c2cc(N3CCOCC3)n3nc(-c4ccncc4)cc3n2)n1` [Ex. 7] gave an IC50 against PIKFYVE [8] of 50 to 1000 nM. Further, on PIKFYVE [9], the inhibition at 0.05 µM was < 50%.
On the same counts, the results for `Fc1ccccc1-c1ccn(-c2cc(N3CCOCC3)n3nc(-c4ccncc4)cc3n2)n1` [Ex. 8] are < 50 nM and 50 to 80%.
In the case of `Fc1ccc(-c2ccn(-c3cc(N4CCOCC4)n4nc(-c5ccncc5)cc4n3)n2)cc1` [Ex. 9], the IC50 at PIKFYVE [8] is < 50 nM. Also, the inhibition at 0.05 µM at PIKFYVE [9] was in the range of 50 to 80%.
For `FC(F)(F)c1ccc(-c2ccn(-c3cc(N4CCOCC4)n4nc(-c5ccncc5)cc4n3)n2)cc1` [Ex. 10], the IC50 against PIKFYVE [8] is > 1000 nM. Besides, the inhibition at 0.05 µM at PIKFYVE [9] was < 50%.

As a reminder, the EC50 is the concentration that produces a half-maximal response. High values mean lower potency in that assay, low ones higher potency in that assay. For orientation: IC50 means the concentration at which inhibition is half-maximal. The low end stands for higher potency, the high end for lower potency. What is called Kd is the free concentration of one partner at which half of the binding sites on the other are occupied at equilibrium, for simple one-to-one binding. High values mean lower affinity, low ones higher affinity.
